The values that follow come from paper PMC9166630, “SAR Probing of KX2-391 Provided Analogues With Juxtaposed Activity Profile Against Major Oncogenic Kinases” (Frontiers in Oncology, 2022).

Structures are written as SMILES.

For one series, the target named is T1, CYP2D6 (Homo sapiens, UniProt P10635).
T1 construct: purchased Fisher Scientific; host or cells: insect cells (supersomes)
The series can be described thus: Inhibition assay of human CYP450 enzymes, 2D6. The class given is in vitro ADME. The note with it: for IC50: fluorescent substrate; for no inhibition of CYP2D6 at concentrations up to: the values are: IC50. The method, then: (§1) The two compounds 4e and 4n were assessed for their ability to inhibit the three major human CYP450 enzymes, 3A4, 2D6 and 2C9. Assays were run in triplicate. Expressed enzymes in insect supersomes (Fisher Scientific, Waltham, MA) were used to minimize non-specific binding and membrane partitioning issues ([68]). The 3A4 assay uses testosterone as a substrate and analysis was performed by LC/MS/MS on a Waters Xevo TQ instrument as described above using positive electrospray ionization. Assay acceptance criteria was 20% for all standards and 25% for the LLOQ. The 2D6 and 2C9 assays use fluorescent substrates (3-[2-(N,N-diethylamino)ethyl]-7-methoxy-4-methylcoumarin for 2D6; 7-methoxy-4-(trifluoromethyl)coumarin for 2C9) and were analyzed on an Envision plate reader. GraphPad® Prism v 5.04 was used for nonlinear fitting of data to generate IC50 values.

The subject of series [1] is MV4-11 leukemia cell line. Kind of series: CellTiter-Blue cell viability assay, MV4-11. Type of series: cell-based. The note with it: Homo sapiens, CellTiter-Blue, 48 h, maximum tested concentration 20 µM, read-out: IC50 ± SEM, MV4-11. The procedure:
(§2) HL60, K562, MV4-11 and NB4 were purchased from CLS Cell Line Service GmbH (Eppelheim, Germany). All cell lines were cultured in RPMI-1640 medium supplemented with 10% fetal bovine serum (FBS) (Thermo Fisher Scientific) and 0.1% ciprofloxacin (2.5mg/ml; Cipla Limited; Mumbai, India), and were maintained at 37°C in the presence of 21% O2 and 5% CO2.
(§3) Cell viability was determined using the CellTiter®-Blue Cell Viability Assay kit (Promega, Madison, WI, USA). Approximately 10^4 cells were counted and plated in a 96-well plate in the presence of test compounds ranging from 0.01 to 10 or 20 µM in triplicate and were incubated for 48 h at 37°C in a humidified incubator. After the incubation period was complete, 20 µL of CellTiter®-Blue Cell Viability Assay reagent was added to each well and incubated for additional 2 h for the development of florescence. Florescence was measured at Ex/Em 540/590 on SpectraMax® i3 Multi-Mode microplate reader (Molecular Devices, LLC; San Jose, CA, USA) and plotted against drug concentration to determine the IC50 of the test compounds. The IC50 was obtained by non-linear regression model using GraphPad Prism 6.07 (GraphPad Software, Inc, USA).
Background: The colour change of resazurin is a common sign of viable cells or microbes.

A further series relates to K562 leukemia cell line. Kind of series: CellTiter-Blue cell viability assay, K562. Type of series: cell-based. To be noted: Homo sapiens, CellTiter-Blue, 48 h, maximum tested concentration 20 µM, read-out: IC50 ± SEM, K562. The method, then:
as §2, §3

A further series deals with HL60 leukemia cell line. The series can be described thus: CellTiter-Blue cell viability assay, HL60. Type of series: cell-based. The note with it: Homo sapiens, HL-60; CellTiter-Blue, 48 h; maximum tested concentration 20 µM; read-out: IC50 ± SEM, HL60. The method, then: as §2, §3
Series [2] relates to MCF7 (breast) cancer cells. The series can be described thus: SRB cytotoxicity assay, MCF7. Type of series: cell-based, human. The note with it: Homo sapiens, MCF7, 72 h, maximum tested concentration 50 µM, read-out: IC50 ± SEM, MCF7. The procedure: MCF7 (breast) or N87 (stomach) cancer cells were grown in Roswell Park Memorial Institute-1640 (RPMI-1640) medium (Thermo Fisher Scientific, Inc; Waltham, MA, USA), supplemented with 10% heat inactivated fetal bovine serum (FBS), 50 units/mL of penicillin and […] of streptomycin and maintained at 37°C in a humidified atmosphere containing 5% CO2. The cells were maintained as “monolayer culture” by serial subculturing.
Cytotoxicity was determined using Sulforhodamine B (SRB) method as previously described by Skehan et al. ([66]). Exponentially growing MCF7 and N87 cells were collected using 0.25% Trypsin-EDTA and were then seeded in 96-well plates at a density of 1000-2000 cells/well in 10% FBS and penicillin/streptomycin supplemented RPMI-1640 medium. After 24 h, cells were treated with different concentrations of test compounds and incubated for 72 h at 37°C in a humidified atmosphere containing 5% CO2. Next, the cells were fixed by adding trichloroacetic acid (TCA, 10% final conc. in wells) directly to the wells and incubated for 1 h at 4°C, then cells were washed with distilled water 5 times to remove excess TCA, media, serum proteins, and metabolites, followed by air drying. After that, the fixed cells were stained with 0.4% SRB dissolved in 1% acetic acid for 10 min at room temperature, and excess stain was removed by quickly rinsing with 1% acetic acid. The residual acetic acid was removed completely by air drying the plates for 24 h, and the dye was solubilized with Tris buffer (pH= 7.4, 10 mM) for 5 min on a shaker at 1600 rpm. The optical density (OD) of each well was measured spectrophotometrically at 564 nm with an ELISA microplate reader (ChroMate-4300, FL, USA). The IC50 values (concentration of drug resulting in 50% reduction in cell survival) were calculated according to the equation for Boltzman sigmoidal concentration–response curve using the nonlinear regression fitting models (Graph Pad, Prism Version 5).
(In general: In SRB staining, fixed cells bind dye roughly in proportion to their protein.)

The next series deals with T2, CYP3A4 (Homo sapiens, UniProt P08684).
T2 construct: purchased Fisher Scientific; host or cells: insect cells (supersomes)
T2 sequence (P08684 whole entry): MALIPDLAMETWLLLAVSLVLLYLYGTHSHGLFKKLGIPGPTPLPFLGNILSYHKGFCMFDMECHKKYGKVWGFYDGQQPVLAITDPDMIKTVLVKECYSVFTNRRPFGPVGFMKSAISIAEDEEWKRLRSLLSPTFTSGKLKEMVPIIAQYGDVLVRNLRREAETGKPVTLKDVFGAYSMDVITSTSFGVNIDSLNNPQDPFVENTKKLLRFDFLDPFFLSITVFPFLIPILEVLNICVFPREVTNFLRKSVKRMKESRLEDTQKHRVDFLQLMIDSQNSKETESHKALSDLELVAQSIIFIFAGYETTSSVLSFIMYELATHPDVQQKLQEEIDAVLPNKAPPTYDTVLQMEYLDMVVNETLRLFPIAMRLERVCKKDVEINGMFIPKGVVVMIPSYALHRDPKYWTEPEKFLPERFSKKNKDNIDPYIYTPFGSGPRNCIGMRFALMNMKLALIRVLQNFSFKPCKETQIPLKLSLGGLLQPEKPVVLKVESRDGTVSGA
Kind of series: Inhibition assay of human CYP450 enzymes, 3A4. Type of series: in vitro ADME. To be noted: for IC50: testosterone substrate; for no inhibition of CYP3A4 at concentrations up to: the values are: IC50. The method, then: as §1

The nature of series [3]: Stability in human liver microsomes. Type of series: in vitro ADME. The note with it: for half-life: human liver microsomes with NADPH, 37°C, read-out: Stability HLM t1/2; for Mic. Ctrl. Human % 60 min: human liver microsomes, no NADPH added. The procedure: Both mouse and human liver microsomes were obtained from Merck KGaA, (Darmstadt, Germany), Cat. No. M9441 (Mouse liver microsomes) and M0317 (Human liver microsomes). Assays were conducted in triplicate in 96-deep well polypropylene plates. […] At five time points, reaction mixture aliquots were transferred to 96-shallow well stop plates on ice containing acetonitrile with 0.1 µM propafenone. […] Standard curves for test compound were generated using 5 concentrations in triplicate that were processed as above but with zero incubation time. Stop plates were centrifuged at 2000 g for 10 min and then supernatant aliquots were transferred to a Waters Aquity® UPLC 700 µL 96-well sample plate with cap mat (Waters, Milford, MA). The amount of compound remaining in the supernatant was quantified by LC/MS/MS using a Waters Xevo TQ MS (electrospray positive mode) coupled to a Waters Aquity® UPLC (BEH column, C18). Propafenone was used as the internal standard. GraphPad® Prism v 5.04 was used for nonlinear fitting of time course data to generate t1/2 values.
A general note: Liver microsomes are vesicles of endoplasmic reticulum, rich in cytochrome P450 enzymes.

T1 sequence (P10635 whole entry): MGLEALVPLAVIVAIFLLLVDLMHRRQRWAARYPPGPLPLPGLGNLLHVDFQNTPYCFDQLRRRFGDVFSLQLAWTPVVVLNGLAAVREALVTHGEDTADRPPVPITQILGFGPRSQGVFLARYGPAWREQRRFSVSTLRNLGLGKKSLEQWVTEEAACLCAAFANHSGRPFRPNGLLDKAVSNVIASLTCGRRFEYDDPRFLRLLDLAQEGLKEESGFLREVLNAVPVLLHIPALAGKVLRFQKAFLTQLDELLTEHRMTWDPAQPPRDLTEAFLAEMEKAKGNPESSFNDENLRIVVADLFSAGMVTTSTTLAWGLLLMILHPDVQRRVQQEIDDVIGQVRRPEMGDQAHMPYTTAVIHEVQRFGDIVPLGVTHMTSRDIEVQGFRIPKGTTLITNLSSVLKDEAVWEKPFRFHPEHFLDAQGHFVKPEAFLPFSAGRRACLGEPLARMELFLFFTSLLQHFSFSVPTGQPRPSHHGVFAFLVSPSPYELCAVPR

As to `O=C(Cc1ccc(NC(=O)c2cccc(Cl)c2)cc1)NCc1ccccc1` [Compound 4e, N-(4-(2-(benzylamino)-2-oxoethyl)phenyl)-3-chlorobenzamide], the IC50 (usually the midpoint of a concentration-inhibition curve) against CYP2D6 was greater than 10000 nM; in series [1] it was 1900 ± 80 nM; in the series on K562 leukemia cell line, 4230 ± 200 nM; with HL60 leukemia cell line, 1620 ± 130 nM; in series [2], 7410 ± 2800 nM; against CYP3A4, greater than 10000 nM. Besides, the no inhibition of CYP2D6 at concentrations up to at CYP2D6 is greater than 10 µM. For the same compound, at CYP3A4, the no inhibition of CYP3A4 at concentrations up to was greater than 10 µM. Further, the half-life in series [3] was greater than 60 min. Also, the “Mic. Ctrl. Human % 60 min” value in series [3] is reported as 102%.

`O=C(Cc1ccc(NC(=O)c2cccc(Cl)n2)cc1)NCc1ccccc1` [Compound 4n, N-(4-(2-(benzylamino)-2-oxoethyl)phenyl)-6-chloropicolinamide]: the IC50 was greater than 10000 nM at CYP2D6; 1960 ± 470 nM in series [1]; 2690 ± 650 nM in the series with K562 leukemia cell line; 2220 ± 60 nM with HL60 leukemia cell line; 250 nM in series [2]; greater than 10000 nM on CYP3A4. On CYP2D6, the no inhibition of CYP2D6 at concentrations up to was greater than 10 µM. The no inhibition of CYP3A4 at concentrations up to on CYP3A4 was greater than 10 µM. In addition, in series [3], the half-life was found to be 40.1 min. For the same compound, the “Mic. Ctrl. Human % 60 min” value in series [3] is on record as 98%.
